These results are taken from US20200061026A1, “METHODS AND COMPOSITIONS FOR PREVENTING VECTOR-BORNE DISEASE TRANSMISSION” (The Scripps Research Institute, priority 2016, published 2020).

Structures are written as SMILES. Like-named read-outs stand apart in the source and are kept apart here.

A short description of data set [1]: Hepatocyte stability assay, rat. It counts as in vitro ADME. The conditions noted are these: SD, hepatocytes. The procedure: Example 7. In Vitro Metabolic Stability of Isoxazoline Compounds in cd-1 Mouse, sd Rat, Beagle Dog, Cynomolgus Monkey and Human Cryopreserved Hepatocytes
Isoxazoline compounds (at 1 μM) were incubated with cryopreserved hepatocytes (0.5×10^6 cells per mL) in duplicates (n=2) at 37° C. using 96-well plate format.
Time points were 0, 15, 30, 60 and 90 minutes in separate plates and medium control samples without cells at 0 and 90 minutes were also incubated. At each time point the reaction was stopped by adding organic solution containing internal standard (IS).
Positive controls 7-ethoxycoumarin and 7-hydroxycoumarin were included in parallel.
The samples were analyzed by LC-MS/MS. Disappearance of the test compound was assessed based on peak area ratios of analyte/IS (no standard curve).
Intrinsic clearance and t½ values were then calculated.

Data set [2] can be described thus: Lipophilicity, ALogD at pH 7.4. It counts as physicochemical.
Data set [3] can be described thus: Plasma protein binding (equilibrium dialysis), rat. The following applies: 2 μM. It is filed as in vitro ADME. The method, then: (§1) Frozen plasma (EDTA-K2 as anticoagulant) pooled from multiple individuals of various species was used as a test matrix. The plasma was purchased from commercial vendors or prepared in house from animals. Warfarin was used as a positive control.
(§2) Isoxazoline compounds were spiked into the blank matrix at the final concentration of 2 μM.
(§3) A 150 μL aliquot of matrix sample was added to one side of the chamber in a 96-well equilibrium dialyzer plate (HTD dialysis) and an equal volume of dialysis buffer was added to the other side of the chamber. An aliquot of matrix sample was harvested before the incubation and used as T0 samples for recovery calculation. Triplicate incubations were performed.
(§4) The dialyzer plate was placed in a humidified incubator and rotated slowly for 4 hours at 37° C. After incubation, samples were taken from the matrix side as well as the buffer side. The plasma sample was matched with equal volume of blank buffer; and buffer samples were matched with equal volume of blank plasma. The matrix-matched samples were quenched with a stop solution containing internal standard.
(§5) The samples were analyzed by LC-MS/MS.
(§6) Then, % bound fraction at 4 hours (% bound=1−% unbound) and % recovery in incubates at 4 hours were calculated.
(§7) The stability of compounds in mouse (ms), rat (r), dog (d), cynomolgus monkey (cy), and human (hu) plasma is shown in Table 10 by the percentages of compounds remaining at two hours.

The target of data set [4] is T1, CYP 2C9 (Homo sapiens, UniProt P11712).
T1 construct: individual CYPs in a pool of human liver microsomes; from tissue; host or cells: pooled human liver microsomes
Kind of data set: Reversible CYP inhibition in human liver microsomes, CYP 2C9. The following applies: diclofenac, read-out: Cyp microsome IC50, 2C9. It is filed as in vitro ADME. The procedure: Reversible inhibition of cytochrome P450s (CYPs) in human liver microsomes was tested using prototypical, isoform-selective activity assays for individual CYPs in a pool of human liver microsomes (i.e., testosterone for CYP 3A4, phenacetin for CYP 1A2, bufuralol for CYP 2D6, S-mephenytoin for CYP 2C19, and diclofenac for CYP 2C9). The assay provides 8-point IC50 determinations in the range of 0.010 to 50 μM drug concentrations for major isoforms of CYP450.

Data set [5] in a line: Bidirectional permeability in Caco-2 cells. It is filed as in vitro ADME, human. The following applies: for Papp B→A at 2 h, 2 μM / Papp A→B at 2 h, 2 μM: human, Caco-2, pH 7.4. The procedure:
The suitability of the compound for oral dosing was evaluated via a Caco-2 permeability assay to predict human intestinal permeability and to investigate drug efflux. Afoxolaner racemate was evaluated for P-glycoprotein (PGP) inhibition in a MDCK permeability assay.
Caco-2 Cells (obtained from ATCC) were seeded onto PET membranes of 96-well Insert Plates for 21-28 days for confluent cell monolayer formation. The integrity of the monolayer was verified by performing Lucifer yellow rejection assay. The quality of the monolayer was also verified by measuring the unidirectional (A→B) permeability of fenoterol/nadolol (low permeability marker), propranolol/metoprolol (high permeability marker) and Bi-directional permeability of Digoxin (a P-glycoprotein substrate marker) in duplicate wells.
Standard assay conditions are as follows: each test compound was tested at 2 μM (DMSO≤1%) with two replicates; bi-directional transport was evaluated (A→B and B→A); incubation was for 2 hours with a single time point; the transport buffer contained HBSS with 10 mM HEPES at pH7.40±0.05; and incubation occurred at 37±1° C., 5% CO2 and relatively saturated humidity. The dosing solution was spiked and mixed with transport buffer and Stop Solution (containing an appropriate internal standard (IS)) to provide the T0 sample. At the end of incubation, sample solutions from both donor and receiver wells were immediately mixed with Stop Solution. All samples, including T0 samples, donor samples, and receiver samples, were analyzed using LC/MS/MS. Concentrations of test compound are expressed as peak area ratio of analytes versus IS without a standard curve.

A short description of data set [6]: Plasma protein binding (equilibrium dialysis), human. The following applies: 2 μM. It counts as in vitro ADME. The procedure:
as §1, §2, §3, §4, §5, §6, §7

Data set [7] deals with hERG channels (Homo sapiens, UniProt Q12809). In words: hERG channel manual patch clamp assay (CHO-K1 cells). It counts as cell-based. The procedure: Cells: Stable CHO-K1 cells expressing hERG channels (from AVIVA Biosciences) were used in the assay.
Patch Clamp recording: The recordings were performed on conventional patch clamp (Axon Multiclamp 700B, Digidata 1440, pCLAMP 10, Molecular Devices Corporation or HEKA EPC10/Patchmaster system, HEKA Elektronik Corporation) at room temperature, using the whole-cell patch clamp techniques. The composition of external solution was (mM): HEPES 10, NaCl 145, KCl 4, CaCl2 2, MgCl2 1, Glucose 10, pH to 7.4 with 1N NaOH, osmolarity to 290-300 mOsm. Filtered and kept at 4° C. The composition of internal solution was (mM): KOH 31.25, KCl 120, CaCl2 5.374, MgCl2 1.75, EGTA 10, HEPES 10, Na2-ATP 4, pH to 7.2 with 1N KOH, osmolarity to 280-290 mOsm. Filtered and kept at −20° C.
For conventional patch clamp, 35 mm culture dishes or recording chambers containing CHO-hERG cells were placed on the stage of an inverted/upright microscope and continuously perfused with external solutions from a perfusion system (RSC-160 Rapid solution Changer, BioLogic or OctaFlow I, ALA Scientific Instruments Inc).
Test compounds were dissolved in 100% DMSO to make stock solutions for each test concentration, and then diluted into external solutions to achieve final concentration for testing. Final DMSO concentration was not more than 0.3%.
Voltage command protocol: From the holding potential of −80 mV, the voltage was first stepped to 60 mV for 850 ms to open hERG channels. Then the voltage was stepped back down to −50 mV for 1275 ms, causing a “rebound” or tail current, which was measured and collected for data analysis. Finally, the voltage was stepped back to the holding potential (−80 mV). This voltage command protocol was repeated every 15000 msec. This command protocol was performed continuously during the test (vehicle control, test compounds).
Compound effect (% inhibition) was determined by difference in current amplitude before and after the application of test compounds. IC50 values were determined from concentration-response curves that were obtained with Hill fitting.

Setting [8] is: rat (r), 1 μM, read-out: Hepatocyte stability (t½).
[9] abbreviates: B→A, 2 μM, 2 hours, read-out: Caco2 B-A.

hERG channels, sequence (Q12809 whole entry): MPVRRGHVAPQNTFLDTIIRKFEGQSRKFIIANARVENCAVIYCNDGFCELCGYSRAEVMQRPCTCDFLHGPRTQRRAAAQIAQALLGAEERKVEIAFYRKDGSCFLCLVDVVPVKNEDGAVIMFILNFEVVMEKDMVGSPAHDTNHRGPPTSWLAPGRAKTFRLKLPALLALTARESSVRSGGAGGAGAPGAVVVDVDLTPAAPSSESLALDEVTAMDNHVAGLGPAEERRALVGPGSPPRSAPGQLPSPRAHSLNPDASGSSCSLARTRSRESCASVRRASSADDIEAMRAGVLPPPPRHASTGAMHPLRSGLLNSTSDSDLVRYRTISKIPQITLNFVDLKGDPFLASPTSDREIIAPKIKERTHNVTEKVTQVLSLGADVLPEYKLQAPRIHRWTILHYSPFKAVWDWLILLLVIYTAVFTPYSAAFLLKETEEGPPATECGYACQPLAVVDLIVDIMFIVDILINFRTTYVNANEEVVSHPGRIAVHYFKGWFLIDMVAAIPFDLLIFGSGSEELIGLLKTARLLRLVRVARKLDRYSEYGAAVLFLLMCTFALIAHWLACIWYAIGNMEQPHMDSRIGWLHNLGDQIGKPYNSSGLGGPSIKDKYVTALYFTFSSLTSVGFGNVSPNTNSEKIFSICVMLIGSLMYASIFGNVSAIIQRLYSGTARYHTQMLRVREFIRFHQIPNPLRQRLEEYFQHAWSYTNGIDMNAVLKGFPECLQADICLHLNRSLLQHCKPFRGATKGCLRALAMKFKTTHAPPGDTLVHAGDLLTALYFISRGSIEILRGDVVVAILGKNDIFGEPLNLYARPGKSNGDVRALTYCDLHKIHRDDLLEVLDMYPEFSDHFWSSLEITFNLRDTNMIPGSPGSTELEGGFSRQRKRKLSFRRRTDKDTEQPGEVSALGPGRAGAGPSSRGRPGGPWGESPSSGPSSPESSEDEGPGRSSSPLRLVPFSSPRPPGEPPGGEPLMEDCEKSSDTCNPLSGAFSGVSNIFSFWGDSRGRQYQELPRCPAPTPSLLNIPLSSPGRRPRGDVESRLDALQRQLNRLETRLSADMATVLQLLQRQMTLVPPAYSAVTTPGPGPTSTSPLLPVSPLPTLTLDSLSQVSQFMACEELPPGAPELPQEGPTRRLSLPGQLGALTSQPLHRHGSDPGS
T1 sequence (P11712 whole entry): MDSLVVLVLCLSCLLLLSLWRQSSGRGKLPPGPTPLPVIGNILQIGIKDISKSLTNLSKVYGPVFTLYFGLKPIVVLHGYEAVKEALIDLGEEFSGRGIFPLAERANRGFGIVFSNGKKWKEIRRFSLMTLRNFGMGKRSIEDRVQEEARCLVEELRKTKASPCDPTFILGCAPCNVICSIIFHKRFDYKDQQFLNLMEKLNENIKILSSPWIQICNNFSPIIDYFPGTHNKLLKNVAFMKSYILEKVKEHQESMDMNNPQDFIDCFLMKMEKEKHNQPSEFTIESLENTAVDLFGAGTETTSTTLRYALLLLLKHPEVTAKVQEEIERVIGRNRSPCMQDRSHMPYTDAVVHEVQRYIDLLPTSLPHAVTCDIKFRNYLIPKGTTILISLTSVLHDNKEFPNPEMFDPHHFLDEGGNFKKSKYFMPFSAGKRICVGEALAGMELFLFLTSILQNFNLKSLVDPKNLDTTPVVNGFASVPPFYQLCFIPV

Consider `O=C(CNC(=O)c1ccc(C2=NO[C@](c3cc(Cl)cc(C(F)(F)F)c3)(C(F)(F)F)C2)c2ccccc12)NCC(F)(F)F` (racemic) [Afoxolaner, afoxolaner], for which the half-life at 1 μM in data set [1] (setting [8]) is more than 3.62 h. In addition, in data set [2], the “ALogD (pH 7.4)” value was found to be 6.1. Besides, the “Plasma protein % binding” value is 97.3 (r), % in data set [3] (rat (r), 4 hours) and >99.9 (d, hu) % in data set [6] (human (hu), 4 hours). Further, the concentration for half-maximal inhibition (IC50) in data set [4] came to 2.9 µM. For the same compound, the “Caco2 A-B” value in data set [5] (A→B, 2 μM, 2 hours) is recorded as <0.0003/ 10^−6 cm/sec. For the same compound, the Papp B→A at 2 h, 2 μM in data set [5] (setting [9]) came to 0.24 ×10⁻⁶ cm/s. Also, in data set [7] (at 5 uM), the “hERG inhibition (manual patch)” value is recorded as 0.9% ± 2.5%.

Take `O=C(CNC(=O)c1ccc(C2=NO[C@@](c3cc(Cl)cc(Cl)c3)(C(F)(F)F)C2)c2ccccc12)NCC(F)(F)F` [(S)-4-(5-(3,5-dichlorophenyl)-5-(trifluoromethyl)-4,5-dihydroisoxazol-3-yl)-N-(2-oxo-2-((2,2,2-trifluoroethyl)amino)ethyl)-1-naphthamide]: in data set [1] (rat), the half-life at 1 μM is 1.28 h. Also, in data set [2], the “ALogD (pH 7.4)” value turned out to be 5.8. For the same compound, the “Plasma protein % binding” value in data set [3] (rat, 4 h) is reported as >99.9% (ms, r, d, hu); in data set [6] (human, 4 h) it was >99.9% (ms, r, d, hu). The IC50 in data set [4] was 1.9 µM; in data set [7] it was 19.9 µM. In addition, in data set [5], the Papp A→B at 2 h, 2 μM was less than 0.29 ×10⁻⁶ cm/s. Besides, the Papp B→A at 2 h, 2 μM in data set [5] is 0.56 ×10⁻⁶ cm/s.

As to `O=C(CNC(=O)c1ccc(C2=NO[C@@](c3cc(Cl)cc(C(F)(F)F)c3)(C(F)(F)F)C2)c2ccccc12)NCC(F)(F)F` [(S)-afoxolaner], the half-life at 1 μM in data set [1] (setting [8]) came out at 1 h. Also, in data set [2], the “ALogD (pH 7.4)” value is 6.1. Also, the “Plasma protein % binding” value in data set [3] (rat (r), 4 hours) is reported as >99.9 (ms, r, hu), %; in data set [6] (human (hu), 4 hours), >99.9 (ms, r, hu), %. For the same compound, the IC50 in data set [4] was 4.2 µM; in data set [7], more than 30 µM. For the same compound, in data set [5] (A→B, 2 μM, 2 hours, read-out: Caco2 A-B), the Papp A→B at 2 h, 2 μM was less than 0.2 ×10⁻⁶ cm/s. The Papp B→A at 2 h, 2 μM in data set [5] (setting [9]) worked out at 0.7 ×10⁻⁶ cm/s.
